In patent publication US11344630B2, “Methods and compositions for red-shifted chromophore substitution for optogenetic applications” (Washington University, priority 2014, dated 2022):
“Also recorded” adds a separate entry of the source.

Columns and labels:
[1] = biological target: T1, archaerhodopsin proton pump, AR-3 (Halorubrum sodomense, UniProt P96787); settings: cited from earlier work; for wavelength of half-maximal absorption on the red slope of the curve: AR-3 expressed in E. coli, chromophore as labelled
T1 construct: host or cells: E. coli
T1 sequence (P96787 7-258): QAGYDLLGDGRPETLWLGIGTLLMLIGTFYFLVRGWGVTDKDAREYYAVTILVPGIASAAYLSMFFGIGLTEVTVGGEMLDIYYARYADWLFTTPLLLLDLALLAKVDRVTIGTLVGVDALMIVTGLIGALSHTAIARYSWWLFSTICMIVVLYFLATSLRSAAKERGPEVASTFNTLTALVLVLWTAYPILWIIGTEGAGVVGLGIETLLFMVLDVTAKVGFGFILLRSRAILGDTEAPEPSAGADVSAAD

optogenetic actuators = settings: replacing retinal with 3,4-didehydroretinal, in vitro; cited from earlier work
[2] = Absorbance spectra of retinoid HPLC peaks; format: physicochemical; settings: predominant retinoid species of zebrafish retina extracts, reduced with sodium borohydride
Source text: (§1) FIG. 1A, FIG. 1B, FIG. 1C, FIG. 1D, FIG. 1E, FIG. 1F, FIG. 1G, FIG. 1H, FIG. 1I, FIG. 1J and FIG. 1K depict images and graphs showing that diverse species employ a vitamin A1 to vitamin A2 switch to red-shift the spectral sensitivity of their photoreceptors. (FIG. 1A) Depicts the conversion of all-trans retinol (vitamin A1) into all-trans 3,4-didehydroretinol (vitamin A2). (FIG. 1B, FIG. 1C, FIG. 1D) Depict several species that switch between the use of vitamin A1 and vitamin A2 for vision at different stages of their life cycle. (FIG. 1B) Sea lamprey; (FIG. 1C) Coho salmon; and (FIG. 1D) Northern leopard frog. (FIG. 1E, FIG. 1F, FIG. 1G, FIG. 1H) depict graphs showing that thyroid hormone treatment of adult zebrafish induces quantitative conversion of retinol into 3,4-didehydroretinol. Adult zebrafish were treated with 300 μg/liter thyroid hormone (L-thyroxine) in their water for three weeks. The retinas were then harvested, and retinoid extracts were reduced with sodium borohydride and analyzed by HPLC. (FIG. 1E) Depicts the position of peak #1 in control zebrafish. (FIG. 1F) Depicts the position of peak #2 in TH-treated zebrafish. […] Note that only vitamin A1 and its derivatives (the retinal form has been reduced to the alcohol form) are detected in the ventral RPE whereas both vitamin A1 and vitamin A2 are present in nearly equal proportions in the dorsal RPE. […]

red single cones = assay: Suction electrode recordings of red single cones from wild-type and cyp27c1 mutant fish; format: in vivo; settings: cyp27c1 mutant zebrafish after thyroid hormone treatment
Source text: FIG. 11A and FIG. 11B depict graphs presenting suction electrode recordings of red single cones from wild-type and Cyp27c1 mutant fish. […] (FIG. 11A) Untreated wild-type and mutant zebrafish have similar sensitivity.
To continue to probe the effects of Cyp27c1, we generated cyp27c1 null mutant zebrafish. […] We then utilized the mutant zebrafish to identify their ability to covert retinol (A1) to 3,4-didehydroretinol (A2). […] Suction electrode recordings of red single cones from wild-type and cyp27c1 mutant fish were performed.

Opn1mw4 = assay: RNA-seq expression profiling of RPE samples from thyroid hormone-treated zebrafish (photoreceptor transcripts); format: in vivo; settings: thyroid hormone-treated 'RPE' samples vs controls
Source text: We therefore analyzed a range of photoreceptor gene transcripts in our thyroid hormone-treated ‘RPE’ and controls, and found similar levels of photoreceptor contamination between the two samples.

adult zebrafish = assay: Thyroid hormone treatment of zebrafish, retinoid content of retinas by HPLC; format: in vivo
Source text: as §1

Cyp27c1 transcript = assay: RNA-seq expression profiling of RPE from thyroid hormone-treated zebrafish vs vehicle-treated controls; format: in vivo; settings: zebrafish treated 3 weeks with thyroid hormone vs vehicle-treated controls
Source text: FIG. 2A and FIG. 2B depict the results of RNA-seq-based expression profiling of zebrafish and bullfrog retinal pigment epithelium (RPE). (FIG. 2A) RNA-seq results comparing the expression levels of individual transcripts (shown as black circles) from RPE derived from zebrafish treated for 3 weeks with thyroid hormone and vehicle-treated controls. The location of the Cyp27c1 transcript is circled in red. (FIG. 2B) RNA-seq results comparing the expression levels of individual transcripts (shown as black circles) from dorsal and ventral bullfrog RPE. The location of the Cyp27c1 transcript is circled in red.
It has long been postulated that the conversion of retinal into 3,4-dehydroretinal in migratory fish is mediated by a ‘terminal ring dehydrogenase’^8. […] To identify the transcript encoding this enzyme, we carried out transcriptome profiling of thyroid hormone-treated fish and compared them to vehicle-treated controls. We hypothesized that the enzyme was likely to be expressed in one of three tissues: retinal pigment epithelium (which lies immediately adjacent to photoreceptors and is a known source of retinoids), retina or liver. We obtained RNA-seq data for RPE and identified an excellent candidate transcript, flj13639. This transcript encodes an ‘orphan’ member of the cytochrome P450 family of monooxygenases, Cyp27c1 (FIG. 2A). […]

HEK293 cells = assay: Cyp27c1 expression in HEK293 cells incubated with retinol, retinoids by HPLC; format: cell-based, human; settings: transfected HEK293 cells incubated with retinol 24 hours, vs empty vector
Protocol: FIG. 5A, FIG. 5B, FIG. 5C, FIG. 5D and FIG. 5E depict the results of introducing an expression construct containing the zebrafish ortholog of Cyp27c1 into HEK293 cells and incubating with retinol for 24 hours (vitamin A1). […] (FIG. 5D, FIG. 5E) depicts the HPLC profile of commercially obtained chemical standards A1 (FIG. 5D) and A2 (FIG. 5E).
Next, we determined if Cyp27c1 is sufficient to convert retinal to 3,4-didehydroretinal. We cloned a full-length zebrafish Cyp27c1 cDNA and a full-length human Cyp27c1 cDNA into a mammalian expression vector and expressed it in HEK293 cells. FIG. 3 confirms that the recombinant zebrafish and human Cyp27c1 are expressed in the HEK293 cells.

Molecule: CC1=C(/C=C/C(C)=C/C=C/C(C)=C/C=O)C(C)(C)CC=C1 [3,4-didehydroretinal]
- red-shift of wavelength of half-maximal absorption ([1]; 3,4-didehydroretinal in place of retinal in AR-3): 40 nm
- wavelength of half-maximal absorption on the red slope of the curve [1]: 639 nm
- red-shift of action spectra (optogenetic actuators): greater than 30 nm

Molecule: CC1=C(/C=C/C(C)=C/C=C/C(C)=C/CO)C(C)(C)CC=C1 [3,4-didehydroretinol, all-trans 3,4-didehydroretinol]
- absorbance maximum (peak) [2]: 355 nm

Molecule: CC1=C(/C=C/C(C)=C/C=C/C(C)=C/C=O)C(C)(C)CCC1 [retinal, all-trans retinal]
- wavelength of half-maximal absorption on the red slope of the curve [1]: 599 nm

Molecule: CC1=C(/C=C/C(C)=C/C=C/C(C)=C/CO)C(C)(C)CCC1 [retinol, all-trans retinol]
- absorbance maximum (peak) [2]: 326 nm

Molecule: N[C@@H](Cc1cc(I)c(Oc2cc(I)c(O)c(I)c2)c(I)c1)C(=O)O [thyroid hormone, L-thyroxine]
- red-shift of red cone sensitivity (red single cones): fail to red-shift
- Opn1mw4 transcript upregulation (Opn1mw4): 4 fold
- HPLC profile of retinoids (adult zebrafish; thyroid hormone treated cyp27c1 null mutant zebrafish): only the presence of A1
- conversion of retinal into 3,4-dehydroretinal (A1 to A2) in retinas (adult zebrafish; wild-type adult zebrafish, 300 μg/liter L-thyroxine in water, three weeks, HPLC): quantitative conversion of retinal into 3,4-dehydroretinal; also recorded: conversion of A1 to A2
- Cyp27c1 transcript expression level in RPE (Cyp27c1 transcript): markedly upregulated

B1: zebrafish Cyp27c1: cytochrome P450, family 27, subfamily C, polypeptide 1 encoded by the cyp27c1 gene from Danio rerio (protein, UniProt A8WGA0 1-540, looked up)
Cytochrome P450 27C1: MALQSTILHMARKNLLQESCRQLLIQTHGLHKSVASGSLEIAAHSQADLKEESAVSPAEEVQKAARVKSLKEMPGPSTVANLLEFFYRDGFSRIHEIQMEHAKKYGKIFKSRFGPQFVVSIADRDMVAQVLRSESATPQRGNMESWKEYRDLRGRSTGLISAEGDEWLKMRSVLRQLIMRPRDVAVFSSDVNDVVADLVKRVKTLRSQQDDSQTVLNINDLFFKYAMEGVATILYETRLGCLENEIPKMSQEYITALHLMFSSFKTTMYAGAIPKWLRPIIPKPWEEFCSSWDGLFKFSQIHVDKRLSEIKKQMEKSEEIKGGLLTHMLVTREMNLEEIYANMTEMLLAGVDTTSFTLSWSTYLLARHPTIQQQIFEEVDRVLGGRVPTGEDVPYLPLIRGLVKETLRLFPVLPGNGRVTHDDLIVGGYLIPKGTQLALCHYSTSMDEENFPRPEEFRPDRWIRKDASDRVDNFGSIPFGYGIRSCIGRRIAELEMHLALTQLLQNFHIEVSPQTTEVHAKTHGLLCPGASINLRFTDRK
- formation of 3,4-didehydroretinol (A2) from retinol (HEK293 cells): significant quantities of 3,4-didehydroretinol

B2: human Cyp27c1: cytochrome P450, family 27, subfamily C, polypeptide 1 encoded by the cyp27c1 gene from Homo sapiens (protein, UniProt Q4G0S4 81-542, looked up)
Cytochrome P450 27C1: ANLAEFFCRDGFSRIHEIQQKHTREYGKIFKSHFGPQFVVSIADRDMVAQVLRAEGAAPQRANMESWREYRDLRGRATGLISAEGEQWLKMRSVLRQRILKPKDVAIYSGEVNQVIADLIKRIYLLRSQAEDGETVTNVNDLFFKYSMEGVATILYESRLGCLENSIPQLTVEYIEALELMFSMFKTSMYAGAIPRWLRPFIPKPWREFCRSWDGLFKFSQIHVDNKLRDIQYQMDRGRRVSGGLLTYLFLSQALTLQEIYANVTEMLLAGVDTTSFTLSWTVYLLARHPEVQQTVYREIVKNLGERHVPTAADVPKVPLVRALLKETLRLFPVLPGNGRVTQEDLVIGGYLIPKGTQLALCHYATSYQDENFPRAKEFRPERWLRKGDLDRVDNFGSIPFGHGVRSCIGRRIAELEIHLVVIQLLQHFEIKTSSQTNAVHAKTHGLLTPGGPIHVRFVNRK
- formation of 3,4-didehydroretinol (A2) from retinol (HEK293 cells): significant quantities of 3,4-didehydroretinol
